Test results from ChEMBL document CHEMBL1142144, “Semimechanistic pharmacokinetic/pharmacodynamic model for assessment of activity of antibacterial agents from time-kill curve experiments” (2007).
In brackets after ≈: the same amount, converted by molar mass.

Test system: Streptococcus pyogenes
Experiment: Antibacterial activity against Streptococcus pyogenes M12 by time-kill curve assay
Format: functional

Compound	MIC [µg/mL]
CC1(C)S[C@@H]2[C@H](NC(=O)Cc3ccccc3)C(=O)N2[C@H]1C(=O)O [PENICILLIN G]	0.012 (≈ 0.0359 µM)
CC[C@H]1OC(=O)[C@H](C)[C@@H](O[C@H]2C[C@@](C)(OC)[C@@H](O)[C@H](C)O2)[C@H](C)[C@@H](O[C@@H]2O[C@H](C)C[C@H](N(C)C)[C@H]2O)[C@](C)(O)C[C@@H](C)C(=O)[C@H](C)[C@@H](O)[C@]1(C)O [ERYTHROMYCIN]	0.125 (≈ 0.17 µM)
COc1c(N2C[C@@H]3CCCN[C@@H]3C2)c(F)cc2c(=O)c(C(=O)O)cn(C3CC3)c12 [MOXIFLOXACIN]	0.125 (≈ 0.311 µM)
CO/N=C(\C(=O)N[C@@H]1C(=O)N2C(C(=O)O)=C(COC(N)=O)CS[C@H]12)c1ccco1 [CEFUROXIME]	0.0313 (≈ 0.0738 µM)
CN[C@H](CC(C)C)C(=O)N[C@H]1C(=O)N[C@@H](CC(N)=O)C(=O)N[C@H]2C(=O)N[C@H]3C(=O)N[C@H](C(=O)N[C@H](C(=O)O)c4cc(O)cc(O)c4-c4cc3ccc4O)[C@H](O)c3ccc(c(Cl)c3)Oc3cc2cc(c3O[C@@H]2O[C@H](CO)[C@@H](O)[C@H](O)[C@H]2O[C@H]2C[C@](C)(N)[C@H](O)[C@H](C)O2)Oc2ccc(cc2Cl)[C@H]1O [VANCOMYCIN]	0.25 (≈ 0.173 µM)
